{"source": "patent US20230346969A1", "about": "“INTERMEDIATE FOR PREPARING ANTIBODY-DRUG CONJUGATE (ADC), PREPARATION METHOD THEREFOR, AND USE THEREOF” (priority 2020, published 2023)", "key": {"[1]": {"system": "COLO205 cells", "assay": "COLO205 mouse transplanted tumor model", "type": "in vivo, BALB/c nu/nu mice", "details": "COLO205 xenograft, intraperitoneal, days 7, 11, 15, 19; p<0.001 vs hRS7-VK-SN38", "source_text": "(§1) Five-week-old female athymic BALB/c nu/nu mice were purchased from Charles River Company (Shanghai, China), and mice were randomly divided into 5-6 mice/group. Animal handling and procedures were approved and performed in accordance with the requirements of the Institutional Animal Care and Use Committee (IACUC) of Shanghai Institute of Materia Medica, Chinese Academy of Sciences. All models were inoculated subcutaneously on the side of mice. BXPC-3, HCC1806 and NCIH1688 cells were established by injecting and homogenizing 5 × 10^6 cells in Matrigel matrix. COLO205 cells were established by injecting and suspending 1 × 10^7 cells in Matrigel matrix. […] The percentage of inhibition was calculated by the following formula: (1-average tumor volume of the treatment group/average tumor volume of the control group)×100%. Toxicity of the different treatment groups was assessed by monitoring weight loss.\nMice inoculated with COLO205 cells (n = 6 per group) were treated with ADC or control drug on days 7, 11, 15, and 19, and tumor volume was measured two or three times a week. Statistical significance between treatment and control groups was assessed using a two-tailed t-test. ***P<0.001, comparing hRS7-VK-PTX with hRS7; p<0.001, comparing hRS7-VK-PTX with hRS7-VK-SN38, data = mean ± SD, the results are shown in FIG. 1c."}, "[2]": {"assay": "Adverse effects and weight loss of mice treated in the efficacy models", "type": "in vivo, BALB/c nu/nu mice", "details": "mouse, in vivo", "source_text": "Five-week-old female athymic BALB/c nu/nu mice were purchased from Charles River Company (Shanghai, China), and mice were randomly divided into 5-6 mice/group. Animal handling and procedures were approved and performed in accordance with the requirements of the Institutional Animal Care and Use Committee (IACUC) of Shanghai Institute of Materia Medica, Chinese Academy of Sciences. All models were inoculated subcutaneously on the side of mice. BXPC-3, HCC1806 and NCIH1688 cells were established by injecting and homogenizing 5 × 10^6 cells in Matrigel matrix. COLO205 cells were established by injecting and suspending 1 × 10^7 cells in Matrigel matrix. After the tumor volume reached about 200 mm^3, the tumor-bearing mice were randomly divided into treatment groups and a control group according to the tumor volume. Each drug was administered intraperitoneally. Mice were injected at doses of 3 or 10 mg/kg (10 mL/kg). Tumor volume was defined as length × ½ × width × width. The percentage of inhibition was calculated by the following formula: (1-average tumor volume of the treatment group/average tumor volume of the control group)×100%. Toxicity of the different treatment groups was assessed by monitoring weight loss."}, "[3]": {"system": "SKBR3 cells", "assay": "Endocytosis and intracellular localization of ADC by confocal microscopy", "type": "cell-based", "details": "5 µg/mL, 37° C., 45 or 90 min", "procedure": "SKBR3 cells were incubated with 5 µg/mL of hRS7-VK-PTX or hRS7-VK-SN38 in a 24-well plate (1 × 10^4 cells/well) in a 5% CO2, 37° C. incubator for 45 or 90 min. Cells were washed once with PBS, fixed and permeabilized. After washing, cells were stained with 488 goat anti-human IgG (H&L) or 555 anti-rabbit IgG F(ab′)2 fragment. Nuclear DNA was stained with 4′,6-dimidyl-2-phenylindole (DAPI). Immunofluorescence was recorded with an Olympus BK71 confocal microscope.\nSKBR3 cells were incubated with ADC molecules at 37° C. for 45 or 90 min. Unbound ADC was removed by washing cells in a culture medium, then the cells were fixed and permeabilized. The marker proteins LAMP-1, GM130 and clathrin were detected with their respective antibodies and a secondary antibody conjugated to Alex®555 (red). Anti-Trop-2 ADC was detected with DyLight®488-conjugated secondary antibody (green). DAPI was used to stain nuclear DNA (blue)."}, "[4]": {"system": "tumor cell lines with different expression levels of Trop-2", "assay": "Cell viability assay (CCK-8), comparison across the cell panel", "type": "cell-based", "procedure": "Cell viability was determined using Cell Counting Kit 8 (CCK-8). Cells were seeded into 96-well plates at 3000-10000 cells/well. After incubation overnight, drugs were added at different concentrations. Plates were incubated in a 5% CO2, 37° C. humidified chamber for 96 hours. CCK8 reagent was added thereto and the plates were placed back to the incubator until the absorbance at 450 nm of untreated control cells was greater than 1.0. Growth inhibition was measured as the percent growth relative to untreated cells. Dose response curve was generated from the mean values of two or three tests, and IC50 values were calculated using Prism GraphPad software.\nThe anti-tumor efficacy of different payloads on different tumor cell lines was detected by CCK-8, and the results are shown in FIG. 5."}, "[5]": {"system": "HCC1806 cells", "assay": "HCC1806 mouse transplanted tumor model", "type": "in vivo, BALB/c nu/nu mice", "source_text": "as §1\nMice inoculated with HCC1806 cells (n = 6 per group) were treated on days 7, 10 and 14. Tumors were measured two or three times per week. On day 20, statistical significance between treatment and control groups was assessed using a two-tailed t-test. *P <0.05, comparing hRS7-VK-PTX treatment group with hRS7-VK-SN38 treatment group, data = mean ± SD, the results are shown in FIG. 7b."}, "[6]": {"system": "BXPC-3 cells", "assay": "BXPC-3 mouse transplanted tumor model", "type": "in vivo, BALB/c nu/nu mice", "source_text": "as §1\nMice inoculated with BXPC-3 cells (n = 5 per group) were treated with ADC or naked antibody on days 5, 13, and 21, and tumors were measured two or three times a week. On day 25, statistical significance between treatment and control groups was assessed using a two-tailed t-test. ***P<0.001, compared with hRS7 treatment group; *P<0.05, comparing hRS7-VK-PTX treatment group with PTX treatment group; compared with hRS7 treatment group, P<0.001, data=mean ± SD, the results are shown in FIG. 7a."}, "[7]": {"system": "MDA-MB-231 or CFPAC-1 cells", "assay": "Detection of ADC endocytosis rate by flow cytometry", "type": "cell-based", "details": "Trop-2 expressing cells, 5 µg/mL ADC, 37° C.", "procedure": "To assess the endocytosis rate of ADC, MDA-MB-231 or CFPAC-1 cells (1 × 10^6) were incubated with 5 µg/mL of ADC samples in a staining medium for 30 min on ice, and washed twice, and then it was placed in a fresh complete medium. Internalization was initiated in a humidified chamber at 37° C. After the incubation, cells were washed twice with an ice-cold staining medium and then stained with goat anti-human IgG-PE. Cells were analyzed by flow cytometry to detect the level of ADC remaining on the surface.\nThe internalization rate of ADC may affect its inhibitory efficiency against tumor cells."}}}
{"substance": "hRS7-VK-PTX", "values": [{"measurement": "inhibition of transplanted tumor", "setting": "[1]", "value": "more effective than hRS7-VK-SN38"}, {"measurement": "adverse effects or weight loss in treated mice", "setting": "[2]", "value": "did not cause adverse effects or weight loss"}, {"measurement": "internalization and intracellular localization", "setting": "[3]", "value": "co-localization of hRS7-VK-PTX molecule with lysosomes and clathrin heavy chain"}, {"measurement": "efficacy of ADC in tumor cell lines with low expression of Trop-2", "setting": "[4]; COL0205, MDA-MB-231, SK - MES-1, Capan-1, NCIH2452", "value": "more effective than hRS7-VK-MMAE and hRS7-VK-SN38"}, {"measurement": "inhibitory effect in PTX-resistant tumor cell lines", "setting": "[4]; SKBR3, CFPAC-1, MDA-MB-231 and COLO205", "value": "good inhibitory effect"}, {"measurement": "tumor inhibitory effect compared with PTX", "setting": "[5]; HCC1806 model, 30 mg/kg (1.3 mg/kg PTX equivalent)", "value": "comparable to that of 10 mg/kg of PTX"}, {"measurement": "inhibition of transplanted tumor", "setting": "[5]; HCC1806 xenograft, intraperitoneal, days 7, 10, 14, P<0.05 vs hRS7-VK-SN38 on day 20", "value": "more effective than hRS7-VK-SN38"}, {"measurement": "inhibition of transplanted tumor", "setting": "[6]; BXPC-3 xenograft, intraperitoneal, days 5, 13, 21", "value": "more effective than hRS7-VK-SN38"}, {"measurement": "inhibition of transplanted tumor compared with PTX", "setting": "[6]; BxPC-3 model, 3 mg/kg of hRS7-VK-PTX, P = 0.0248", "value": "more effective than 10 mg/kg of PTX"}, {"measurement": "internalization rate", "setting": "[7]", "value": "faster than hRS7-VK-MMAE and hRS7-VK-SN38"}]}
